The subject of assay [1] is S. epidermidis (clinical). Briefly: Electroanalytically determined MIC / antimicrobial response curve, gram-positive bacteria. Format: cell-based, Staphylococcus epidermidis. To be noted: for MIC: Staphylococcus epidermidis. An excerpt: (§1) Identical lots of media and antimicrobial agents were used in the susceptibility tests performed. The media used were trypticase soy agar (TSA) and TSB from Baltimore Biological Laboratories (BBL), Cockeysville, Maryland. The 12 antimicrobial agents used in the experiments, which were chosen on the basis of their clinical usefulness, were laboratory reference standards including the following antibiotics: penicillin G potassium, caphalothin sodium, tobramycin, vancomycin hydrochloride and streptomycin sulfate obtained from Eli Lilly and Co.; tetracycline and carbenicillin obtained from Pfizer Laboratories; ampicillin and sodium nafcillin from Wyeth Laboratories; kanamycin and methicillin from Bristol Laboratories; gentamicin from Schering.
(§2) The following cultures were obtained from Hoffmann-LaRoche, Inc. and were derived from the American Type Culture Collection (ATCC) organisms as indicated: Escherichia coli, "Seattle Strain" ATCC 25922, Klebsiella pneumoniae ATCC 27736; Pseudomonas aeruginosa, ATCC 9721. These bacteria are gram negative bacteria. The following bacteria are gram positive: Staphylococcus aureus, "Seattle Strain" ATCC 25923; Staphylococcus epiderdimis ATCC 14990; and Streptococcus pyogenes, ATCC 10389. In addition, clinical specimens of these same six organisms were obtained from sensitivity isolates from the University of Virginia Hospital Department of Clinical Pathology Bacteriology Section. These organisms, both pathogenic and non-pathogenic (Staphylococcus epidermidis), were chosen because they are some of the most frequently encountered organisms in clinical isolates.
(§3) Inocula were prepared by making a 100-fold dilution×2 of an overnight TSB culture of the organism to be tested in sterile TSB prewarmed to 35° C. Thus, the total dilution of overnight stock was 10^-4. From the 10^-4 series, 0.3 ml was transferred to a test tube (Falcon, disposable #2057) containing 2.7 ml of TSB if the growth control, or 2.6 ml of TSB plus 0.1 ml of a particular concentration of an appropriate antibiotic to be tested. The antibiotic was weighed on an analytical balance, according to each agent's activity standard, and diluted with sterile distilled water in a volumetric flask to achieve a stock solution of 1000 mcg/ml which was then frozen in small aliquots. Further dilutions as necessary for susceptibility testing were also achieved through the addition of sterile distilled water to this stock concentration. Viable counts were made by plating appropriate dilutions from the 10^-4 series on TSA and counting colonies after 24 hours incubation at 35° C. Viable counts were also made on each microorganism at the time of MDC and again at the end of the 24 hour test period to confirm the minimum inhibitory concentration (MIC).
(§4) The experimental apparatus used in this study to monitor the inhibition of growth due to the addition of antibiotics consisted of test tubes, up to and including 8, size 17×100 mm, each containing a sterilized (by boiling) Pt-SCE combination electrode (Sargent-Welch, S-30101-15), plus TSB, microorganisms, and antibiotic where appropriate, positioned in a 35° C. heating block. Leads from the electrode were connected to a high impedance (greater than 10^8 ohms) potentiometer, or voltage following device, which in turn was connected to a strip chart recorder (Hewlett-Packard type 680M). Microbial growth was measured by an increase in voltage in the negative direction with time as recorded on the strip chart recorder.
(§5) FIG. 12 is a stripchart recording of the antimicrobial response curve of a four channeled expriment involving a clinical specimen of the non-hydrogenproducing, Gram-positive bacteria Staphylococcus epidermidis treated with 0.012, 0.5 and 1.0 mcg/ml of the antibiotic ampicillin as shown in curves B, C and D respectively. […]

The subject of a further assay is S. aureus (clinical). The experiment in a line: Electroanalytically determined MIC, gram-positive bacteria. The assay is classed as cell-based. To be noted: Staphylococcus aureus.
Source text: as §1, §2, §3, §4, §5

The test system of another assay is S. epidermidis (ATCC). Described as above. The assay is classed as cell-based, Staphylococcus epiderdimis ATCC 14990. The note with it: Staphylococcus epidermidis.
Source text: as §1, §2, §3, §4, §5

In a further assay the test system is S. aureus (ATCC). The description is as above. Format: cell-based, "Seattle Strain" ATCC 25923. To be noted: Staphylococcus aureus.
Source text: as §1, §2, §3, §4, §5

A further assay has as its system K. pneumoniae (ATCC). Briefly: Electroanalytically determined MIC / antimicrobial response curve, gram-negative bacteria. Format: cell-based, Klebsiella pneumoniae ATCC 27736. To be noted: for MIC: Klebsiella pneumoniae.
Source text: as §1, §2, §3, §4, §5

In another assay the test system is E. coli (clinical). The experiment in a line: Electroanalytically determined MIC, gram-negative bacteria. To be noted: Escherichia coli. The assay is classed as cell-based, Escherichia coli.
Source text: as §1, §2, §3, §4, §5

Another assay concerns P. aeruginosa (clinical). The description is as above. The note with it: Pseudomonas aeruginosa, 24 h. Format: cell-based, Pseudomonas aeruginosa.
Source text: as §1, §2, §3, §4, §5

Another assay has as its system E. coli (ATCC). The description is as above. Format: cell-based, Escherichia coli, "Seattle Strain" ATCC 25922. The note with it: Escherichia coli.
Source text: as §1, §2, §3, §4, §5

For another assay, the system named is P. aeruginosa (ATCC). The description is as above. The assay is classed as cell-based, Pseudomonas aeruginosa, ATCC 9721. The note with it: Pseudomonas aeruginosa, 24 h.
Source text: as §1, §2, §3, §4, §5

The test system of the next assay is S. pyogenes (ATCC). Briefly: Electroanalytically determined MIC, gram-positive bacteria. The assay is classed as cell-based, ATCC 10389. To be noted: Streptococcus pyogenes, 24 h.
Source text: as §1, with “Schering. […]” for “Schering.”
The experimental apparatus used in this study to monitor the inhibition of growth due to the addition of antibiotics consisted of test tubes, up to and including 8, size 17×100 mm, each containing a sterilized (by boiling) Pt-SCE combination electrode (Sargent-Welch, S-30101-15), plus TSB, microorganisms, and antibiotic where appropriate, positioned in a 35° C. heating block. […] Microbial growth was measured by an increase in voltage in the negative direction with time as recorded on the strip chart recorder. […]

The next assay deals with S. pyogenes (clinical). The description is as above. The note with it: Streptococcus pyogenes, 24 h. The assay is classed as cell-based.
Source text: as §1, §2, §3, §4, §5

Setting [2] is: S. epidermidis (clinical), TSB, 35° C., 24 hour test period, read-out: MIC.
The mark [3] stands for this setting: S. aureus (clinical), TSB, 35° C., 24 hour test period, read-out: MIC.
Setting [4] is: S. epidermidis (ATCC), TSB, 35° C., 24 hour test period, read-out: MIC.
Where [5] appears, read: S. aureus (ATCC), TSB, 35° C., 24 hour test period, read-out: MIC.

Molecules are shown by their SMILES. Where a name gives a salt, the structure may show the parent alone. Read-outs that look alike come from different tables or passages of the source.

For orientation: MIC means the smallest concentration in the dilution series that meets the test's criterion for growth inhibition. For `COc1cccc(OC)c1C(=O)N[C@@H]1C(=O)N2[C@@H]1SC(C)(C)[C@@H]2C(=O)O` [Meth, methicillin], the MIC in assay [1] (setting [2]) is 0.5 to 1 µg/mL; with S. aureus (clinical) (setting [3]) it was 0.7 µg/mL; in the assay on S. epidermidis (ATCC) (setting [4]), 0.5 to 1 µg/mL; in the assay with S. aureus (ATCC) (setting [5]) it was 0.7 µg/mL.

Turning to `CC1(C)S[C@@H]2[C@H](NC(=O)[C@H](N)c3ccccc3)C(=O)N2[C@H]1C(=O)O` [Amp, ampicillin], the MIC with K. pneumoniae (ATCC) (K. pneumoniae (ATCC), TSB, 35° C., 24 hour test period, read-out: MIC) is 32 µg/mL; in [1] (setting [2]), 0.8 to 1 µg/mL; with S. aureus (clinical) (setting [3]), 0.12 µg/mL; in the assay with E. coli (clinical) (E. coli (clinical), TSB, 35° C., 24 hour test period, read-out: MIC), 6 µg/mL; in the assay with P. aeruginosa (clinical), > 128 µg/mL; in the assay on S. epidermidis (ATCC) (setting [4]), 1 µg/mL. In addition, the MIC in the assay on E. coli (ATCC) (E. coli (ATCC), TSB, 35° C., 24 hour test period, read-out: MIC) was 4 µg/mL; in the assay with S. aureus (ATCC) (setting [5]), 0.12 to 0.6 µg/mL; in the assay on P. aeruginosa (ATCC), > 128 µg/mL. Further, the “growth inhibition (antimicrobial response curve, FIG. 12)” value in assay [1] (S. epidermidis clinical specimen, 0.012, 0.5 and 1.0 mcg/ml) is reported as “increasingly inhibited”.

Turning to `CN[C@H](CC(C)C)C(=O)N[C@H]1C(=O)N[C@@H](CC(N)=O)C(=O)N[C@H]2C(=O)N[C@H]3C(=O)N[C@H](C(=O)N[C@H](C(=O)O)c4cc(O)cc(O)c4-c4cc3ccc4O)[C@H](O)c3ccc(c(Cl)c3)Oc3cc2cc(c3O[C@@H]2O[C@H](CO)[C@@H](O)[C@H](O)[C@H]2O[C@H]2C[C@](C)(N)[C@H](O)[C@H](C)O2)Oc2ccc(cc2Cl)[C@H]1O` [Vanco, vancomycin hydrochloride], the MIC is 0.1 to 0.5 µg/mL in the assay on S. pyogenes (ATCC); 2 to 3 µg/mL in assay [1] (24 h); 0.5 µg/mL in the assay on S. pyogenes (clinical); 2 µg/mL in the assay with S. aureus (clinical) (24 h); 1.5 µg/mL in the assay on S. epidermidis (ATCC) (24 h); 1 µg/mL in the assay on S. aureus (ATCC) (24 h).

With `CCOc1ccc2ccccc2c1C(=O)N[C@@H]1C(=O)N2[C@@H]1SC(C)(C)[C@@H]2C(=O)O` [Naf, sodium nafcillin], the MIC is 0.5 to 1 µg/mL in [1] (setting [2]), 0.5 µg/mL with S. aureus (clinical) (setting [3]), 0.5 to 1 µg/mL with S. epidermidis (ATCC) (setting [4]) and 0.5 µg/mL in the assay with S. aureus (ATCC) (setting [5]).

With `CC1(C)S[C@@H]2[C@H](NC(=O)Cc3ccccc3)C(=O)N2[C@H]1C(=O)O` [Pen G, penicillin G potassium], the MIC is 0.1 µg/mL in assay [1] (24 h), 0.05 µg/mL in the assay on S. aureus (clinical) (24 h), 0.08 to 0.1 µg/mL in the assay with S. epidermidis (ATCC) (24 h) and 0.05 µg/mL with S. aureus (ATCC) (24 h).

`CC(=O)OCC1=C(C(=O)O)N2C(=O)[C@@H](NC(=O)Cc3cccs3)[C@H]2SC1` [Ceph, cephalothin]: in the assay with K. pneumoniae (ATCC) (K. pneumoniae ATCC, 0.3, 0.4, 0.5, 1.0 and 2.0 mcg/ml), the “growth inhibition (antimicrobial response curve, FIG. 13)” value was “increasingly inhibited”. Moreover, the MIC in the assay with K. pneumoniae (ATCC) (24 h) is 1 µg/mL; in assay [1] (24 h), 0.5 to 1 µg/mL; in the assay on S. aureus (clinical) (24 h), 0.8 to 1.6 µg/mL; in the assay on E. coli (clinical) (24 h), 9 µg/mL; with P. aeruginosa (clinical), > 360 µg/mL; with S. epidermidis (ATCC) (24 h), 0.1 µg/mL. The results for the MIC in the assay with E. coli (ATCC) (24 h), in the assay with S. aureus (ATCC) (24 h) and in the assay with P. aeruginosa (ATCC) were 8 µg/mL, 0.15 to 0.2 µg/mL and > 360 µg/mL, respectively.

(Values after patent publication US4246343A, “Microbial detection and enumeration method and apparatus” (University of Virginia and National Aeronautics & Space …, priority 1979, dated 1981).)
